Measured values taken from patent US20090137565A1, “Method for treatment of movement disorders” (The Trustees of Columbia University in the City of New York, priority 2004, published 2009).

Key:
[1] = tested on: severe posthypoxic myoclonus
Description: After obtaining verbal consent from the patient and their spouse, they were given approximately six ounces of wine to drink (alcohol content 14% by volume). […] They were videotaped before and after the trial with alcohol.

[2] = tested on: severe posthypoxic myoclonus; assay: Earlier trials of anti-myoclonic medications in the Example 1 patient (case history); conditions: for reason for intolerance / adverse effect: human, in vivo
Description: The patient was referred to the Columbia University Medical Center Movement Disorder Center for evaluation of severe posthypoxic myoclonus at the age of 37. […] Back-averaged EEGs and somatosensory evoked potentials were not available.

[3] = approximately six ounces of wine
[4] = Example 1 patient, before the trial

SMILES | outcome of trials of anti-myoclonic medications [2, 4] | reason for intolerance / adverse effect [2] | further results
CCO [alcohol] | – | – | duration of anti-myoclonic effect [1, 3]: resolved in several hours; effect on myoclonus [1, 3]: dramatic improvement in myoclonus; time to improvement in myoclonus ([1]; approximately six ounces of wine (alcohol content 14% by volume)): ≤ 30 min
O=C1CN=C(c2ccccc2Cl)c2cc([N+](=O)[O-])ccc2N1 [clonazepam] | only minimally successful | – | dose-limiting side effect [2, 4]: dose-limiting sedation; effect on severity of myoclonus [2, 4]: partially improved
CC[C@@H](C(N)=O)N1CCCC1=O [levetiracetam] | only minimally successful | – | –
CC1(C)O[C@@H]2[C@@H](CO[C@@]3(COS(N)(=O)=O)OC(C)(C)O[C@@H]23)O1 [topiramate] | only minimally successful | – | –
CCCC(CCC)C(=O)O [valproic acid] | only minimally successful | drop in platelet count | –
NS(=O)(=O)Cc1noc2ccccc12 [zonisamide] | only minimally successful | anorexia | –
